Source: patent US20140249135A1, “PIM KINASE INHIBITORS AND METHODS OF THEIR USE” (NOVARTIS AG, priority 2007, published 2014)

How the values were obtained:
Assay type in all cases: biochemical
[1] = target: Pim2 kinase (Homo sapiens, UniProt Q9P1W9); assay: Pim2 ATP depletion assay; conditions: read-out: IC50 (μM) PIM2;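 further: Luciferase-based luminescent readout of ATP remaining after PIM2 phosphorylates a BAD peptide, final 5 nM enzyme, 4 µM ATP, 10 µM peptide, 2.5% DMSO, run to roughly half ATP consumption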
[2] = target: Pim1 kinase (Homo sapiens, UniProt P11309); assay: Pim1 ATP depletion assay; conditions: Pim1 ATP depletion assay; read-out: IC50 (μM) PIM1;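 further: Luciferase-luciferin luminescence readout of residual ATP after PIM1 transfers phosphate to a peptide substrate, 40 µM ATP added, reaction run to roughly half ATP consumption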
[3] = target: Pim3 kinase (Homo sapiens, UniProt Q86V86); assay: Pim3 ATP depletion assay; conditions: read-out: IC50 (μM) PIM3

Sequence of Pim1 kinase (P11309 whole entry): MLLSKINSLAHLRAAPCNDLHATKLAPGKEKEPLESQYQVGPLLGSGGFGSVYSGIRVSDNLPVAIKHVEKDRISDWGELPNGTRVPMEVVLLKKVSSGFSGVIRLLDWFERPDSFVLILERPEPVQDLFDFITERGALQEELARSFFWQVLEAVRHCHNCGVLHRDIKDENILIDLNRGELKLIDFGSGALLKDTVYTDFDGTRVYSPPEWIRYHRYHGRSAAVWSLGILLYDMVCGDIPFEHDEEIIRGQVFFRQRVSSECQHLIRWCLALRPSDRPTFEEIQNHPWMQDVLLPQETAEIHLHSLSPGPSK
Sequence of Pim2 kinase (Q9P1W9 whole entry): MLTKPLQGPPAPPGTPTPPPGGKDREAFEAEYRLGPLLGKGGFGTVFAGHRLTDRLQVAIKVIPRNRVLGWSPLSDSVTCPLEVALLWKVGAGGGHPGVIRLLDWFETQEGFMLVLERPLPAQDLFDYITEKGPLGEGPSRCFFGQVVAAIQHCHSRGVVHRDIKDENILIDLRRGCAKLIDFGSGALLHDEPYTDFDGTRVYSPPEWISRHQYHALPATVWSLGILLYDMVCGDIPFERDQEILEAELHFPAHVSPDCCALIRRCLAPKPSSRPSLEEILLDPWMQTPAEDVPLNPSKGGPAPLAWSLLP

IC50 [1] [µM] | IC50 [2] [µM] | IC50 [3] [µM] | Compound
> 25 | > 25 | 10 to 25 | Nc1nccnc1C(=O)Nc1cc(C(=O)C2CC2)ccc1N1CCNCC1 [Example 245, 3-amino-N-[5-(cyclopropyl-carbonyl)-2-piperazin-1-yl-phenyl]pyrazine-2-carboxamide]
< 1 | < 1 | < 1 | Nc1cnc(-c2c(F)cccc2F)nc1C(=O)Nc1cnccc1N1C[C@H](N)C[C@H](N)C1 [Example 246, 5-Amino-2-(2,6-difluoro-phenyl)-pyrimidine-4-carboxylic acid (3,5-diamino-3,4,5,6-tetra-hydro-2H-[1,4′]bipyridinyl-3′-yl)-amide]
< 1 | < 1 | < 1 | Nc1cnc(-c2ccccc2F)nc1C(=O)Nc1cnccc1N1C[C@H](N)C[C@H](N)C1 [Example 247, 5-Amino-2-(2-fluoro-phenyl)-pyrimidine-4-carboxylic acid (3,5-diamino-3,4,5,6-tetrahydro-2H-[1,4′]bipyridinyl-3′-yl)-amide]
< 1 | < 1 | < 1 | Nc1ccc(-c2ccccc2F)nc1C(=O)Nc1cnccc1N1C[C@H](N)C[C@H](N)C1 [Example 248, 3-Amino-6-(2-fluoro-phenyl)-pyridine-2-carboxylic acid (3,5-diamino-3,4,5,6-tetrahydro-2H-[1,4′]bipyridinyl-3′-yl)-amide]
< 1 | < 1 | < 1 | N[C@H]1CCCN(c2ccncc2NC(=O)c2ccnc(-c3ccccc3F)n2)C1 [Example 250, N-{4-[(3S)-3-aminopiperidin-1-yl]pyridin-3-yl}-2-(2-fluoro-phenyl)pyrimidine-4-carbox-amide]
< 1 | < 1 | < 1 | NCCC(=O)N1CCN(c2ccncc2NC(=O)c2nc(-c3ccccc3F)ccc2N)CC1 [Example 251, 3-Amino-6-(2-fluoro-phenyl)-pyridine-2-carboxylic acid {4-[4-(3-amino-propionyl)-piperazin-1-yl]-pyridin-3-yl}-amide]
< 1 | < 1 | < 1 | NCC(=O)N1CCN(c2ccncc2NC(=O)c2nc(-c3ccccc3F)ccc2N)CC1 [Example 252, 3-Amino-6-(2-fluoro-phenyl)-pyridine-2-carboxylic acid {4-[4-(2-amino-acetyl)-piperazin-1-yl]-pyridin-3-yl}-amide]
< 1 | < 1 | < 1 | CC(C)NC(=O)c1ccc(F)c(-c2ccc(N)c(C(=O)Nc3cnccc3N3CC[C@@H](F)[C@H](N)C3)n2)c1 [Example 253, 3-Amino-6-(2-fluoro-5-isopropylcarbamoyl-phenyl)-pyridine-2-carboxylic acid (3-amino-4-fluoro-3,4,5,6-tetra-hydro-2H-[1,4′]bipyridinyl-3′-yl)-amide]
< 1 | < 1 | < 1 | Nc1ccc(-c2ccccc2F)nc1C(=O)Nc1cnccc1N1CCC(F)(F)C(N)C1 (stereo not drawn) [Example 254, 3-Amino-6-(2-fluoro-phenyl)-pyridine-2-carboxylic acid (3-amino-4,4-difluoro-3,4,5,6-tetra-hydro-2H-[1,4′]bipyridinyl-3′-yl)-amide]
< 1 | < 1 | < 1 | CC(C)NC(=O)c1ccc(F)c(-c2ccc(N)c(C(=O)Nc3cnccc3N3CCC(F)(F)C(N)C3)n2)c1 (stereo not drawn) [Example 255, 3-Amino-6-(2-fluoro-5-isopropylcarbamoyl-phenyl)-pyridine-2-carboxylic acid (3-amino-4,4-difluoro-3,4,5,6-tetra-hydro-2H-[1,4′]bipyridinyl-3′-yl)-amide]
< 1 | < 1 | < 1 | Nc1ccc(-c2nccs2)nc1C(=O)Nc1cnccc1N1CC[C@@H](F)[C@H](N)C1 [Example 257, 3-amino-N-{4-[(3R,4R)-3-amino-4-fluoropiperidin-1-yl]pyridin-3-yl}-6-(1,3-thiazol-2-yl)pyridine-2-carboxamide]
< 1 | < 1 | < 1 | CC(C)NC(=O)c1ccc(F)c(-c2ccc(N)c(C(=O)Nc3cnccc3N3CC[C@H](F)[C@H](N)C3)n2)c1 [Example 258, 3-Amino-6-(2-fluoro-5-isopropylcarbamoyl-phenyl)-pyridine-2-carboxylic acid (3-amino-4-fluoro-3,4,5,6-tetra-hydro-2H-[1,4′]bipyridinyl-3′-yl)-amide]
< 1 | < 1 | < 1 | Nc1cc(F)c(Br)nc1C(=O)Nc1cnccc1N1CCC[C@H](N)C1 [Example 259, 3-amino-N-{4-[(3S)-3-amino-piperidin-1-yl]pyridin-3-yl}-6-bromo-5-fluoropyridine-2-carboxamide]
< 1 | < 1 | < 1 | Nc1cc(F)cnc1C(=O)Nc1cnccc1N1CCC[C@H](N)C1 [Example 260, 3-amino-N-{4-[(3S)-3-amino-piperidin-1-yl]pyridin-3-yl}-5-fluoropyridine-2-carboxamide]
1 to 10 | < 1 | < 1 | Nc1cnc(-c2ccccc2)nc1C(=O)Nc1cnccc1N1CCCC(O)(C(F)(F)F)C1 (stereo not drawn) [Example 262, 5-Amino-2-phenyl-pyrimidine-4-carboxylic acid (3-hydroxy-3-trifluoromethyl-3,4,5,6-tetra-hydro-2H-[1,4′]bipyridinyl-3′-yl)-amide]
< 1 | < 1 | < 1 | Nc1cnc(-c2ccccc2F)nc1C(=O)Nc1cnccc1N1CCC[C@H](N)C1 [Example 263, 5-Amino-2-(2-fluoro-phenyl)-pyrimidine-4-carboxylic acid (3-amino-3,4,5,6-tetrahydro-2H-[1,4′]bipyridinyl-3′-yl)-amide]
< 1 | < 1 | < 1 | Nc1cc(-c2ccncc2NC(=O)c2nc(-c3c(F)cccc3F)ccc2N)nc(C(F)(F)F)n1 [Example 266, 3-Amino-6-(2,6-difluoro-phenyl)-pyridine-2-carboxylic acid [4-(6-amino-2-trifluoromethyl-pyrimidin-4-yl)-pyridin-3-yl]-amide]
< 1 | < 1 | < 1 | COc1cc(-c2ccncc2NC(=O)c2nc(-c3cc(C(=O)NC(C)C)ccc3F)ccc2N)nc(N)n1 [Example 267, 3-Amino-6-(2-fluoro-5-isopropylcarbamoyl-phenyl)-pyridine-2-carboxylic acid [4-(2-amino-6-methoxy-pyrimidin-4-yl)-pyridin-3-yl]-amide]
< 1 | < 1 | < 1 | Cc1cc(-c2ccncc2NC(=O)c2nc(-c3ccccc3)ncc2N)cc(N)n1 [Example 269, 5-Amino-2-phenyl-pyrimidine-4-carboxylic acid (6′-amino-2′-methyl-[4,4′]bipyridinyl-3-yl)-amide]
< 1 | < 1 | < 1 | Nc1cnc(-c2c(F)cccc2F)nc1C(=O)Nc1cnccc1N1CCC[C@H](N)C1 [Example 270, 5-Amino-2-(2,6-difluoro-phenyl)-pyrimidine-4-carboxylic acid (3-amino-3,4,5,6-tetrahydro-2H-[1,4′]bipyridinyl-3′-yl)-amide]
